The text below walks through data of patent publication US20230000797A1, “COMPOSITIONS AND METHODS FOR TREATING MOTOR DISORDERS” (ARIZONA BOARD OF REGENTS ON BEHALF OF THE UNIVERSITY OF …, priority 2015, published 2023).

For data set [1], the system named is patients with PD. Kind of data set: Low-dose ketamine infusion in PD patient case studies (retrospective chart review). The class given is in vivo, human. The protocol:
We report on five cases of low-dose ketamine infusion in patients with PD identified by a retrospective chart review (Table 1). Ketamine was indicated for a variety of co-morbid conditions. The level of documentation of PD and LID symptoms pre and post-infusion was variable, but in many cases included standardized clinical rating scales collected by Movement Disorder specialists. […] Patients were treated in the intensive care unit using a protocol developed by one of the authors (ME) for treatment of intractable headache that specified titration of ketamine to a target rate of 0.15 mg/kg/hr for a 72 hr period.

Data set [2] relates to striatal DA content. Briefly: Electrochemical detection (HPLC-EC) of striatal DA content. The class given is in vivo, rat. The protocol: Measurement of dopamine content: Coronal brain slices were collected and 2 mm steel biopsy punches were used to sample striatal tissue. Samples from left and right hemispheres were collected and immediately flash frozen on an aluminum pan at −70° C., as published (Flores et al., 2014). Samples massed at 2.5±0.5 mg and were then homogenized in dilute perchloric acid. High performance liquid chromatography with electrochemical detection (HPLC-EC) was used to quantify DA.

For data set [3], the system named is unilaterally 6-hydroxydopamine (6-OHDA)-lesioned PD rats. Briefly: Development of LID under once-weekly 10-hour infusion paradigm (LAO AIMs). The class given is in vivo, rat. To be noted: n=9 per group; for animals that did not develop any dyskinesia or only very subtle dyskinesia: 6 and 12 mg/kg L-DOPA periods. The protocol: Unilaterally 6-hydroxydopamine (6-OHDA)-lesioned PD rats were injected daily with L-DOPA (days 0-13: 6 mg/kg; days 14-28: 12 mg/kg; i.p.) to induce dyskinesia and tested for limb, axial and oral (LAO) abnormal involuntary movements (AIMs) twice a week for 3 hours by blinded investigators.

Data set [4] relates to awake and behaving naive rats. Briefly: Local-field activity recordings in motor cortex (M1) and dorsolateral striatum (DLS), naive rats. The class given is in vivo, rat. As to conditions: 20 mg/kg, 5 i.p. injections every 2 hours. Here is the method:
Using the 10-hour racemic ketamine paradigm (5 i.p. injections every 2 hours), simultaneous local-field activity in multiple brain structures in two awake and behaving naive rats was measured. Recordings were acquired from a 64 channel fixed electrode array. Average response across 2 animals and 5 sessions was obtained.

Data set [5] has as its system unilateral 6-hydroxydopamine (6-OHDA)-lesioned rats. Kind of data set: Local-field activity recordings in M1 and DLS, rodent Parkinson's disease model. To be noted: 20 mg/kg, 5 i.p. injections every 2 hours. The class given is in vivo, rat. The protocol:
Using a 10-hour racemic ketamine paradigm (5 i.p. injections every 2 hours), simultaneous measurement of local-field activity in multiple brain structures in three awake and behaving unilateral 6-hydroxydopamine (6-OHDA)-lesioned rats, a common model of Parkinson's disease. Recordings were acquired from a 64 channel fixed electrode array. Average response across 3 animals. Power spectrogram from a 10 hour session created by averaging spectra acquired. Vertical lines indicate ketamine injection times.

In data set [6] the test system is unilaterally 6-OHDA-lesioned LID rats. Kind of data set: L-DOPA-induced AIMs in the preclinical rat LID model (10 hr ketamine 'infusion' paradigm or acute injection). To be noted: cohort #1; for L-DOPA-induced contralateral locomotor behavior / ipsiversive turning behavior (worsening of the Parkinsonism): all tested doses; for L-DOPA-induced contralateral locomotor behavior: 10 hr 'infusion'; for ipsiversive turning behavior (worsening of the Parkinsonism): in the presence of L-DOPA.

The subject of data set [7] is tyrosine hydroxylase (TH). Briefly: Semi-quantitative western analysis of striatal tyrosine hydroxylase expression. The class given is in vivo, rat. To be noted: unilateral lesion; TH normalized to β-actin; n=15. Here is the method:
Western analysis of tyrosine hydroxylase (TH) content: After the tissue punch, described above, the remaining striata from left and right hemispheres were immediately flash frozen and stored at —70 ° C. Total protein was prepared and semi-quantitative western analysis was conducted as described (Flores et al., 2014; Yue et al., 2014) with 3 modifications. 30 μg of protein/sample was loaded and analyzed on the same blot. Secondary antibody dilution for β-actin: 1:10,000. Images were analyzed with the G:Box XR5 Chemi system (Syngene, Frederick, Md.) using GeneSys v. 1.4.0.0.

Setting [8] is: DLS and M1, after each injection.

“Also recorded” adds a separate entry of the source.

For `CNC1(c2ccccc2Cl)CCCCC1=O` (racemic) [ketamine, (RS)-2-(2-Chlorophenyl)-2-(methylamino)cyclohexanone], the “UPDRS Dyskinesia score (sum of items 32-34)” value in data set [1] (case #1, 72 hr low-dose ketamine infusion) was “reduced”. Moreover, the dyskinesia entry in data set [1] (case #1, at second infusion 3 years later despite increase in L-DOPA dose) is on record as “free of dyskinesia”; in data set [1] (case #1, during and after the infusion, carbidopa/L-DOPA dosages unchanged), “improved markedly”; in data set [1] (case #2, low-dose ketamine infusion), “dramatic reduction”; in data set [1] (case #3, following the infusion), “completely subsided”. Besides, the severe tremor result in data set [1] (case #1, during second infusion, tremor had returned 3 weeks later) is listed as “resolved acutely”. For the same molecule, the “% dyskinesia on time” value in data set [1] (case #1, patient diary, 72 hr low-dose ketamine infusion) is “reduced”. In addition, the LID result in data set [1] (case #1, weeks 2-4 post-K) was “completely resolved”. The depression result in data set [1] (case #3) is reported as “dramatically improved”. The motor symptoms result in data set [1] (case #3, during the infusion) is recorded as “acutely improved”. In addition, the headache entry in data set [1] (case #4) is on record as “improved”. In data set [1] (cases #4 and 5 (STN DBS-treated)), the “effect on motor symptoms” value is recorded as “little effect”. Further, the tolerability and safety result in data set [1] (five PD case reports overall) was “excellent tolerability and safety”. Besides, in data set [2] (acute i.p. 20 mg/kg vs. saline, 30 min before euthanasia), the “striatal [DA]” value was “unchanged”. In data set [3] (10-hours infusion paradigm once a week, daily L-DOPA 6 then 12 mg/kg i.p.), the “reduction of mean LAO AIMs scores” value worked out at 50%. For the same molecule, the “animals that did not develop any dyskinesia or only very subtle dyskinesia” value in data set [3] was 4 of 9. In addition, in data set [4] (M1-DLS), the “coherence in the HFO frequency band” value is reported as “increased”. The “high-frequency activity (120-140 Hz)” value in data set [4] (M1 and DLS, after each injection) is listed as “clear increase”; in data set [5] (setting [8]), “clear increase”. The “correlation (r) of coherence in HFO and beta bands” value in data set [4] (n=5 sessions) is −0.65. Besides, the “coherence in the beta band” value in data set [4] (with successive injections) is given as “decreased”. Further, in data set [5] (setting [8]), the “gamma band activity (40-60 Hz)” value is listed as “clear increase”. Also, the “beta-gamma cross-frequency coupling (CFC) in the DLS” value in data set [5] (following each injection, n=15 sessions across 3 animals) is “reduced”. In addition, the “change in the already-reduced AIMs score” value in data set [6] (10 mg/kg ketamine-'infusion' given after the other treatments (test for sensitization)) was “No change”. Moreover, the “persistent reduction of AIMs scores lasted (post-injection)” value in data set [6] (20 mg/kg ketamine-'infusion') was “at least 55 days”. The “L-DOPA-induced contralateral locomotor behavior” value in data set [6] is reported as “did not significantly change”; in data set [6] (listed as Ketamine), “did not have a significant effect”. In addition, the figures for the “ipsiversive turning behavior (worsening of the Parkinsonism)” value in data set [6] and in data set [6] (listed as Ketamine) were “did not acutely induce” and “did not induce ipsilateral rotations”, respectively. In addition, in data set [6] (low-dose ketamine given for a 10 hr period, 5-20 mg/kg), the “anti-dyskinetic effect (LID / AIMs)” value is “dose-dependent long-term anti-dyskinetic effect; also recorded: Long-term dose-dependent reduction”. In addition, the “LAO-AIMs score, pre-K (20 mg/kg) vs last testing session” value in data set [6] (n=5, p<0.05) is “significantly reduced”.
As to `NCCc1cc(O)c(O)cc1O` [6-OHDA, 6-hydroxydopamine], in data set [2] (unilateral lesion, lesioned vs unlesioned side), the “reduction of striatal DA content in the lesioned side” value is recorded as > 95%. Besides, in data set [7], the “reduction of striatal TH expression in the lesioned side” value was found to be 87%.
Take `CN[C@@]1(c2ccccc2Cl)CCCCC1=O` [R-ketamine]: the “animals that did not develop any dyskinesia or only very subtle dyskinesia” value in data set [3] is on record as 1.
On to `NC12CC3CC(CC(C3)C1)C2` [amantadine], for which the LID result in data set [1] (case #2, prior treatment, 200 mg daily) was “failed to improve”.
